In patent US11578100B2, “Cyclic peptides, cyclic peptide conjugates and methods of use thereof” (Florida Atlantic University Board of Trustees, priority 2018, dated 2023):
Where a SMILES comes first, the peptide text is derived from it. Bridges are numbered along the chain shown (N, C = ends). Where no end group is shown, it is not given here. [ ]: non-standard residue; d: D form. Trp(5-OH) = N[C@@H](Cc1c[nH]c2ccc(O)cc12)C(=O)O; Tic = O=C(O)[C@@H]1Cc2ccccc2CN1

Columns and labels:
[1] = system: mice; assay: 55° C. warm water tail-withdrawal test; type: in vivo, mouse; details: i.n. administration
[2] = biological target: T1, μ opioid receptor (MOR) (Homo sapiens, UniProt P35372); assay: opioid receptor protein binding radioassay, MOR
T1 construct: expressed in transfected cells; host or cells: CHO cells
T1 sequence (P35372 whole entry): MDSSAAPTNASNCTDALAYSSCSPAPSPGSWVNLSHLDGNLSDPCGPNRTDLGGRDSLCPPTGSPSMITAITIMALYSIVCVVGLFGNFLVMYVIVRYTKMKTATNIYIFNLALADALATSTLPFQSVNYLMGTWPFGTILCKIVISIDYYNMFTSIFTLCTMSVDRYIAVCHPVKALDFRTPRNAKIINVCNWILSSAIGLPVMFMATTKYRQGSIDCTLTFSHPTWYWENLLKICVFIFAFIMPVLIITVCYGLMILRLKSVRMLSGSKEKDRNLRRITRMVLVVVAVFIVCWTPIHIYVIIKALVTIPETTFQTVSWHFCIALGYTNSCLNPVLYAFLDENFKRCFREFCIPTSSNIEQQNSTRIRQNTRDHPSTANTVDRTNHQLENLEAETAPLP

[3] = stability in 100% mouse brain homogenate; type: in vitro ADME; details: 37° C., RP-HPLC and MALDI TOF MS
Description: Peptides Stability Under Physiologically Relevant Conditions and Mode of Action Stability of DADLE-OL in 100% human cerebrospinal fluid and 100% mouse brain homogenate at 37° C. was determined. The disappearance of the intact peptides and formation of proteolytic products was monitored by RP-HPLC and MALDI TOF mass spectrometry. […] Once diffused into the brain, DOR active sequence is released due to proteolytic hydrolysis of DADLE-OL. Fragment 1 was synthesized, and activities of the parent DADLE-OL and fragment 1 were tested in the cAMP inhibition assay (cAMP AlphaScreen™ Assay, Perkin Elmer).

[4] = biological target: T2, δ opioid receptor (DOR) (Homo sapiens, UniProt P41143); assay: opioid receptor protein binding radioassay, DOR
T2 construct: expressed in transfected cells; host or cells: CHO cells
T2 sequence (P41143 whole entry): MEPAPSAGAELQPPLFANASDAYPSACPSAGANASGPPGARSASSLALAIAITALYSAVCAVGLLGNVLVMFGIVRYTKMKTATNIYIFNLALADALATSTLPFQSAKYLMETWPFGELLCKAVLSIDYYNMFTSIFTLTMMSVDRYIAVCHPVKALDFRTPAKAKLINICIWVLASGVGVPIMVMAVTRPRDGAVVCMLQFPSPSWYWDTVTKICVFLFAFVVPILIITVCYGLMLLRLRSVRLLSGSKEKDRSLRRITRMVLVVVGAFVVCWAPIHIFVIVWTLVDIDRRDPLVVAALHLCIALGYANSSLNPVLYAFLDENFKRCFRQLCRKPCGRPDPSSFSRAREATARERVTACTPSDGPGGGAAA

[5] = system: mice; assay: observation of adverse effects after i.n. administration
[6] = biological target: T3, κ opioid receptor (KOR) (Homo sapiens, UniProt P41145); assay: opioid receptor protein binding radioassay, KOR
T3 construct: expressed in transfected cells; host or cells: CHO cells
T3 sequence (P41145 whole entry): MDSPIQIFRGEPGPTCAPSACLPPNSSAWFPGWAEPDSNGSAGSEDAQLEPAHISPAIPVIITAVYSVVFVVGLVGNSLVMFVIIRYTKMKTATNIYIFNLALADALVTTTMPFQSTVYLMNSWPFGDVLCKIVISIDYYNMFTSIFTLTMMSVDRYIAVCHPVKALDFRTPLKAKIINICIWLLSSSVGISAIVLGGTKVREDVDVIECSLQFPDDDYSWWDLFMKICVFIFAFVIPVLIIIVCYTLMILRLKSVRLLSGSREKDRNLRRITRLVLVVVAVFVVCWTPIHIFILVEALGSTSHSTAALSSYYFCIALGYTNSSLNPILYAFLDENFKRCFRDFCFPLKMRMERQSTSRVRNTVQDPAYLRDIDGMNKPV

[7] = peptide level in mouse brain after i.n. or i.p. administration (LC-MS/MS)
[8] = system: mice; assay: conditioned place preference / aversion; details: mouse, in vivo
[9] = 30 min after intranasal delivery
Text: Anatomical and physiological studies identified the midbrain periaqueductal gray (PAG) and its descending projections to the rostral ventromedial medulla (RVM) and spinal cord dorsal horn, as a primary anatomical pathway mediating opioid-based analgesia.

[10] = system: mice; assay: rotarod test of motor coordination; details: peptides i.n.; U50,488 i.p.
[11] = biological target: T4, DOR (Mus musculus, UniProt P32300); assay: antagonism of i.c.v. SNC-80 after i.n. pretreatment; type: in vivo; details: SNC-80 i.c.v.
T4 construct: from tissue; host or cells: living mouse (CNS); SNC-80 i.c.v. after i.n. TIPP-OL
T4 sequence (P32300 whole entry): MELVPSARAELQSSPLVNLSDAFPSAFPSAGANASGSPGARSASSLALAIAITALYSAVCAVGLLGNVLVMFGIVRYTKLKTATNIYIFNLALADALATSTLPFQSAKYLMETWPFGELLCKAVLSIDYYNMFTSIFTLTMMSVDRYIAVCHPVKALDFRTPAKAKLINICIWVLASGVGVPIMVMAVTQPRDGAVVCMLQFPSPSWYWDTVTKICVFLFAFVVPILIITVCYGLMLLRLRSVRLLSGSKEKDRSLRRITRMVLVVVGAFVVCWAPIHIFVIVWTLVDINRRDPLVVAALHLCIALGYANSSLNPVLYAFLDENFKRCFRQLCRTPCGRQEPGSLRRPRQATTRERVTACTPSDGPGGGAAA

## CC(C)C[C@@H](NC(=O)[C@H](Cc1ccccc1)NC(=O)CNC(=O)[C@@H](C)NC(=O)[C@@H](N)Cc1ccc(O)cc1)C(=O)O [DADLE, [D-Ala^2, D-Leu^5] enkephalin, reference compound]
[1]
  antinociception in tail-withdrawal test: did not themselves produce antinociception

## Y^1P^2W^3F^4K^5-cyclo[C^6F^7R^8Y^9Tic^10F^11F^12V^13L^14A^15C^16]T^17 (YPWFKCFRY[Tic]FFVLACT; disulfide 6-16 (inferred)) [TIPP-EM1-OL]
[1]
  antinociception in tail-withdrawal test: exhibits antinociceptive effects

## CC(C)C[C@@H]1NC(=O)[C@H](C(C)C)NC(=O)CNC(=O)[C@H](CC(N)=O)NC(=O)[C@@H]2CCCN2C(=O)[C@H](Cc2ccc(O)cc2)NC(=O)[C@H](CCCNC(=N)N)NC(=O)[C@H](Cc2ccccc2)NC(=O)[C@@H](NC(=O)[C@H](CCCCN)NC(=O)[C@@H]2CCCN2C(=O)[C@H](CO)NC(=O)[C@H](C)NC(=O)[C@@H](N)Cc2ccc(O)cc2)CSSC[C@@H](C(=O)N[C@H](C(N)=O)[C@@H](C)O)NC(=O)[C@H](C)NC1=O [OL, Y^1A^2S^3P^4K^5-cyclo[C^6F^7R^8Y^9P^10N^11G^12V^13L^14A^15C^16]T^17, reference compound] (H-YASPKCFRYPNGVLACT-NH2; disulfide 6-16; N-terminus and C-terminus assumed)
[2]
  Kd opioid receptor μ: n.o.
[3]
  stability in 100% mouse brain homogenate: proteolytic cleavage of the N-terminal Tyr^1 and Ala^2
[4]
  Kd opioid receptor δ: n.o.
[5]
  adverse effects: no adverse effects were observed
[6]
  Kd opioid receptor K: n.o.
[7]; 30 minutes after i.n. (30 μg, 6 μL/nostril)
  detection in mouse brain after i.n. administration: can be detected in the mouse brain
[7]; after i.n. administration
  time to elimination from the brain: about 240 minutes

## CC(C)C[C@@H]1NC(=O)[C@H](CCCCN)NC(=O)[C@@H]2CCCN2C(=O)[C@H](Cc2c[nH]c3ccccc23)NC(=O)[C@H](Cc2ccccc2)NC(=O)CNC(=O)[C@H](CCCNC(=N)N)NC(=O)[C@H](Cc2ccccc2)NC(=O)[C@@H](NC(=O)[C@H](CCCCN)NC(=O)[C@@H]2CCCN2C(=O)[C@H](CO)NC(=O)[C@H](C)NC(=O)[C@@H](N)Cc2c[nH]c3ccc(O)cc23)CSSC[C@@H](C(=O)N[C@H](C(N)=O)[C@@H](C)O)NC(=O)[C@H](C)NC1=O [OLKOR-L1-5HTrp, 5-HTrp^1-A^2S^3P^4K^5-cyclo[C^6F^7R^8G^9F^10W^11P^12K^13L^14A^15C^16]T^17] (H-[Trp(5-OH)]ASPKCFRGFWPKLACT-NH2; disulfide 6-16)
[8]
  conditioned place aversion (CPA): produced CPA
  conditioned place preference (reward): do not produce reward
[9]
  5-HTrp accumulation in the midbrain: significant increase in 5-HTrp accumulation in the midbrain

## CC(C)C[C@@H]1NC(=O)[C@H](CCCCN)NC(=O)[C@@H]2CCCN2C(=O)[C@H](Cc2c[nH]c3ccccc23)NC(=O)[C@H](Cc2ccccc2)NC(=O)CNC(=O)[C@H](CCCNC(=N)N)NC(=O)[C@H](Cc2ccccc2)NC(=O)[C@@H](NC(=O)[C@H](CCCCN)NC(=O)[C@@H]2CCCN2C(=O)[C@H](CO)NC(=O)[C@H](C)NC(=O)[C@@H](N)Cc2ccc(O)cc2)CSSC[C@@H](C(=O)N[C@H](C(N)=O)[C@@H](C)O)NC(=O)[C@H](C)NC1=O [OLKOR-L1, Y^1A^2S^3P^4K^5-cyclo[C^6F^7R^8G^9F^10W^11P^12K^13L^14A^15C^16]T^17] (H-YASPKCFRGFWPKLACT-NH2; disulfide 6-16)
[5]
  adverse effects: no other adverse effects were observed
[10]
  motor coordination in rotarod test: no impairment in motor coordination in mice was observed

## Y^1A^2S^3P^4K^5-cyclo[C^6F^7R^8Y^9Tic^10F^11F^12V^13L^14A^15C^16]T^17 (YASPKCFRY[Tic]FFVLACT; disulfide 6-16 (inferred)) [TIPP-OL]
[11]
  antagonism of the effect of SNC-80: fully antagonizes the effect of a potent DOR agonist SNC-80

## CC(C)C[C@@H]1NC(=O)[C@H](CC(N)=O)NC(=O)[C@H](C(C)C)NC(=O)[C@@H]2CCCN2C(=O)[C@H](Cc2ccccc2)NC(=O)[C@H](Cc2c[nH]cn2)NC(=O)[C@H](CCCNC(=N)N)NC(=O)[C@H](Cc2ccccc2)NC(=O)[C@@H](NC(=O)[C@H](CCCCN)NC(=O)[C@@H]2CCCN2C(=O)[C@H](CO)NC(=O)[C@H](C)NC(=O)[C@@H](N)Cc2ccc(O)cc2)CSSC[C@@H](C(=O)N[C@H](C(N)=O)[C@@H](C)O)NC(=O)[C@H](C)NC1=O [OLMOR-L1, Y^1A^2S^3P^4K^5-cyclo[C^6F^7R^8H^9F^10P^11V^12N^13L^14A^15C^16]T^17] (H-YASPKCFRHFPVNLACT-NH2; disulfide 6-16)
[8]
  conditioned place aversion (CPA): did not induce significant conditioned place preference or aversion
  conditioned place preference (reward): did not induce significant conditioned place preference or aversion
[10]
  motor coordination in rotarod test: did not affect motor coordination and balance
